ChEMBL document CHEMBL1136546, “SLV310, a novel, potential antipsychotic, combining potent dopamine D2 receptor antagonism with serotonin reuptake inhibition” (Bioorg Med Chem Lett, 2003)
pKi: −log10 of the molar value.

How the values were obtained:
D(2) dopamine receptor = D(2) dopamine receptor (Homo sapiens, UniProt P14416); assay: In vitro binding affinity at human cloned dopamine receptor D2 (long) stably expressed in CHO cells by [3H]spiperone displacement.; format: cell-based
[1] = target: Sodium-dependent serotonin transporter (Rattus norvegicus, UniProt P31652); assay: In vitro binding affinity for serotonin reuptake sites in rat frontal cortex membranes by [3H]paroxetine displacement.; format: cell membranes, Membrane
Sodium-dependent serotonin transporter, sequence (P31652 whole entry): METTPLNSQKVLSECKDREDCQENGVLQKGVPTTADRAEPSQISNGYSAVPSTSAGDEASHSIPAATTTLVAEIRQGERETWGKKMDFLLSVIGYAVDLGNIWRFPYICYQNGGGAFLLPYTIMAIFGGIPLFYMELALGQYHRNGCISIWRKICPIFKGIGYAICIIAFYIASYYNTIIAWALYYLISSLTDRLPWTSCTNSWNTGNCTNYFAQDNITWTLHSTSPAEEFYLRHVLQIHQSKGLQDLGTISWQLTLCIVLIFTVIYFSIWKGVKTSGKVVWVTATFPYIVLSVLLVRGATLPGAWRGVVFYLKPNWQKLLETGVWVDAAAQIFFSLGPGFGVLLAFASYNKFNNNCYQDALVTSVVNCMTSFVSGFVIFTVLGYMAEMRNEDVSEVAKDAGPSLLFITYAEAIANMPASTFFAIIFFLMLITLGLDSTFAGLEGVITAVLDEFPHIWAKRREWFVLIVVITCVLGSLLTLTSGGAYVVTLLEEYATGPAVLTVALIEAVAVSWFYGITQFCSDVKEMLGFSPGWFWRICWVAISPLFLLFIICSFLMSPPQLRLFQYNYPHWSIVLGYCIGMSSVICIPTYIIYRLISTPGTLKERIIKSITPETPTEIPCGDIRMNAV

Mus musculus [2] = assay: Dopaminergic antagonistic activity was determined in vivo by antagonising apomorphine induced climbing behavior (APO) in mice by oral administration; format: functional
Mus musculus [3] = assay: Serotonin reuptake activity was determined in vivo by potentiation of 5-hydroxytryptophan induced serotonin syndrome like behavior in mice by oral administration; format: functional
Rattus norvegicus = assay: Effective dose to exhibit antipsychotic potency after oral administration in rats was determined; format: functional

D(2) dopamine receptor, sequence (P14416 whole entry): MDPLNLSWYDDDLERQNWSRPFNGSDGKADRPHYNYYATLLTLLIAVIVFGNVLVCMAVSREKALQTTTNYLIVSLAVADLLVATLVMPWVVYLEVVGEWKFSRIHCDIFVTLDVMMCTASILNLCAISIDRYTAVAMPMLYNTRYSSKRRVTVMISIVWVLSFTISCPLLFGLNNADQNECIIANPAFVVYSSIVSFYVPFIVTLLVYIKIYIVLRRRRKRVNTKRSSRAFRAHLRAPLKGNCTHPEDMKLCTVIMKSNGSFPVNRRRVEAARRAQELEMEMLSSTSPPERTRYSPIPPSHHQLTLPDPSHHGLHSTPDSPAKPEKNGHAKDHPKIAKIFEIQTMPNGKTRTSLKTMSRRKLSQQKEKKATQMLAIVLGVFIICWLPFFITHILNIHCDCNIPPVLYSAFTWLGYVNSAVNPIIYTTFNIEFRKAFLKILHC

c1ccc2c(CCC3CCNCC3)c[nH]c2c1 [INDALPINE]
pKi (D(2) dopamine receptor): < 6.00

Cc1ccc2c(c1)C(=O)N(CCCCCN1CC=C(c3c[nH]c4ccccc34)CC1)C2=O
pKi (D(2) dopamine receptor): 7.40
pKi [1]: 8.70

O=C1c2ccccc2C(=O)N1CCCCN1CC=C(c2c[nH]c3ccc(F)cc23)CC1
pKi (D(2) dopamine receptor): 7.80
pKi [1]: 9.22

O=C1c2ccc(F)cc2C(=O)N1CCCCCN1CC=C(c2c[nH]c3ccc(F)cc23)CC1
pKi (D(2) dopamine receptor): 8.00
ED50 (Mus musculus [2]): 5 mg/kg
pKi [1]: 8.89
ED50 (Mus musculus [3]): 10 mg/kg

O=C1c2ccccc2C(=O)N1CCCCCN1CC=C(c2c[nH]c3ccc(Cl)cc23)CC1
pKi (D(2) dopamine receptor): 7.70
pKi [1]: 7.80

O=C1c2ccc(F)cc2C(=O)N1CCCCCN1CC=C(c2c[nH]c3ccccc23)CC1
pKi (D(2) dopamine receptor): 7.40
pKi [1]: 8.70

O=C1c2ccccc2C(=O)N1CCCN1CC=C(c2c[nH]c3ccc(F)cc23)CC1
pKi (D(2) dopamine receptor): 7.70
pKi [1]: 7.60

Cc1ccc2c(c1)C(=O)N(CCCCCN1CC=C(c3c[nH]c4ccc(F)cc34)CC1)C2=O
pKi (D(2) dopamine receptor): 7.70
pKi [1]: 8.52

Cc1cccc2c(C3=CCN(CCCCCN4C(=O)c5ccccc5C4=O)CC3)c[nH]c12
pKi (D(2) dopamine receptor): 7.40
pKi [1]: 8.89

O=C1c2ccccc2C(=O)N1CCCCCN1CC=C(c2c[nH]c3ccccc23)CC1
pKi (D(2) dopamine receptor): 7.60
ED50 (Mus musculus [2]): 14 mg/kg
pKi [1]: 8.60
ED50 (Mus musculus [3]): 7.1 mg/kg

O=C(CCCN1CCC(O)(c2ccc(Cl)cc2)CC1)c1ccc(F)cc1 [HALOPERIDOL]
ED50 (Mus musculus [2]): 0.1 mg/kg

O=C1c2ccccc2C(=O)N1CCCCCCCN1CC=C(c2c[nH]c3ccc(F)cc23)CC1
pKi (D(2) dopamine receptor): 7.60
pKi [1]: 9.10

O=C1c2cccc(F)c2C(=O)N1CCCCCN1CC=C(c2c[nH]c3ccccc23)CC1
pKi (D(2) dopamine receptor): 7.60
ED50 (Mus musculus [2]): > 20 mg/kg
pKi [1]: 9.10
ED50 (Mus musculus [3]): < 50 mg/kg

O=C1c2ccccc2C(=O)N1CCCCCN1CC=C(c2c[nH]c3ccc(F)cc23)CC1
pKi (D(2) dopamine receptor): 8.30
ED50 (Mus musculus [2]): 5.6 mg/kg
ED50 (Rattus norvegicus): 17.5 mg/kg
pKi [1]: 8.60
ED50 (Mus musculus [3]): 5.9 mg/kg

C1=C(c2c[nH]c3ccccc23)CCNC1
pKi [1]: 8.22

Cc1cccc2c1C(=O)N(CCCCCN1CC=C(c3c[nH]c4ccc(F)cc34)CC1)C2=O
pKi (D(2) dopamine receptor): 7.60
pKi [1]: 9.00

O=C(CCCN1CCC(CCc2c[nH]c3ccccc23)CC1)c1ccc(F)cc1
pKi (D(2) dopamine receptor): 7.40
ED50 (Mus musculus [2]): 11 mg/kg
pKi [1]: 8.70
ED50 (Mus musculus [3]): > 30 mg/kg

Cc1cccc2c1C(=O)N(CCCCCN1CC=C(c3c[nH]c4ccccc34)CC1)C2=O
pKi (D(2) dopamine receptor): 7.00
pKi [1]: 9.00

O=C1c2cccc(F)c2C(=O)N1CCCCCN1CC=C(c2c[nH]c3ccc(F)cc23)CC1
pKi (D(2) dopamine receptor): 7.92
ED50 (Mus musculus [2]): 6.1 mg/kg
pKi [1]: 9.40
ED50 (Mus musculus [3]): 10 mg/kg
